The target of one experiment is T1, HIV protease (Human immunodeficiency virus type 1 group M subtype B, UniProt P04585).
T1 construct: A third viral enzyme known as protease then cleaves the polyproteins
Description: Enzymatic Assay for Determining the Inhibition Constant (Ki) of Synthetic Compounds Targeting the HIV Protease (fluorometric FRET assay).
Conditions: not given
Format: biochemical. The procedure, abridged:
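Ki obtained via the Henderson equation from enzyme velocities with and without compound, accounting for substrate concentration and Km. Activity followed by FRET fluorescence from cleavage of a substrate flanked by EDANS donor and DABCYL acceptor.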
Regarding `Cc1ccc(S(=O)(=O)N(CC(C)C)[C@H](CO)CCCCNC(=O)[C@H](Cc2c[nH]c3ccccc23)NC(=O)c2ccccc2)cc1` [Example 191, (2S,2′S) 2-N-Isobutyl-2-N-(4-methylbenzenesulfonyl)-6-N-(N′α-benzoyl-S-tryptophanyl)-2,6-diaminohexanol], the affinity, expressed as Ki, was 3.8 nM.
Compound `COC(=O)N[C@@H](Cc1ccccc1)C(=O)NCCCC[C@@H](CO)N(CC(C)C)S(=O)(=O)c1ccc(N)cc1` [Example 177, (2S,2′S) 2-N-(4-Aminobenzenesulfonyl)-2-N-isobutyl-6-N-(N′α-methoxycarbonyl-S-phenylalanyl)-2,6-diaminohexanol] had a Ki of 6.6 nM.
Still for that read-out and setting: for `COc1ccc(S(=O)(=O)N(CC(C)C)[C@H](CO)CCCCNC(=O)[C@H](Cc2c[nH]c3ccccc23)NS(=O)(=O)c2ccc(C)cc2)cc1` [Example 149, (2S,2′S) 2-N-Isobutyl-2-N-(4-methoxybenzenesulfonyl)-6-N-[N′α-(4-methylbenzenesulfonyl)-S-tryptophanyl]-2,6-diaminohexanol] the value was 7.5 nM; for `COc1ccc(S(=O)(=O)N(CC(C)C)[C@H](CO)CCCCNC(=O)[C@H](Cc2c[nH]c3ccccc23)NC(=O)OC(C)(C)C)cc1` [Example 147, (2S,2′S) 2-N-Isobutyl-2-N-(4-methoxybenzenesulfonyl)-6-N-(N′α-tert-butoxycarbonyl-S-tryptophanyl)-2,6-diaminohexanol], 16 nM; for `Cc1ccc(S(=O)(=O)N(CC(C)C)[C@@H](CCCCNC(=O)[C@H](Cc2cn(Cc3ccccc3)cn2)NC(=O)OC(C)(C)C)C(=O)O)cc1` [Example 85, Nα-Isobutyl-Nα-(4-methylbenzenesulfonyl)-Nε-(N′α-tert-butoxycarbonyl-Nτ-benzyl-L-histidinyl)-L-lysine], 124 nM.
`Cc1ccc(S(=O)(=O)N[C@@H](Cc2c[nH]c3ccccc23)C(=S)NCCCC[C@@H](CO)N(CC(C)C)S(=O)(=O)c2ccc(C)cc2)cc1` [Example 102] returned an inhibition constant Ki of 51 nM.
Regarding `Cc1ccc(S(=O)(=O)N(CC(C)C)[C@H](CO)CCCCNC(=O)[C@H](Cc2c[nH]c3ccccc23)NC(=O)OCC(C)C)cc1` [Example 192, (2S,2′S) 2-N-Isobutyl-2-N-(4-methylbenzenesulfonyl)-6-N-(N′α-isobutoxycarbonyl-S-tryptophanyl)-2,6-diaminohexanol], the Ki turned out to be 4.5 nM.
Compound `Cc1ccc(S(=O)(=O)N(CC(C)C)[C@H](CO)CCCCNC(=O)[C@H](Cc2ccccc2F)NC(=O)OC(C)(C)C)cc1` [Example 138, (2S,2′S) 2-N-Isobutyl-2-N-(4-methylbenzenesulfonyl)-6-N-(N′α-tert-butoxycarbonyl-S-2-fluorophenylalanyl)-2,6-diaminohexanol] returned an inhibition constant Ki of 10 nM.
In turn, `CC(C)CN([C@@H](CCCCNC(=O)[C@H](Cc1ccccc1)NS(=O)(=O)c1cccs1)C(=O)O)S(=O)(=O)c1ccc(N)cc1` [Example 46, Nα-(4-Aminobenzenesulfonyl)-Nα-isobutyl-Nε-[N′α-(2-thiophenesulfonyl)-L-phenylalanyl]-L-lysine] displayed a Ki of 0.477 nM.
Still for that read-out and setting: for `Cc1ccc(S(=O)(=O)N[C@@H](CC(N)=O)C(=O)NCCCC[C@@H](C(=O)O)N(CC(C)C)S(=O)(=O)c2ccc(C)cc2)cc1` [Example 61, Nα-Isobutyl-Nα-(4-methylbenzenesulfonyl)-Nε-[N′α-(4-methylbenzenesulfonyl)-L-asparagyl]-L-lysine] the value was 296 nM.
`CC(C)CN([C@@H](CCCCNC(=O)[C@H](Cc1ccccc1)NS(=O)(=O)c1cccs1)C(=O)O)S(=O)(=O)c1ccc([N+](=O)[O-])cc1` [Example 29, Nα-Isobutyl-Nα-(4-nitrobenzenesulfonyl)-Nε-[N′α-(2-thiophenesulfonyl)-L-phenylalanyl]-L-lysine] yielded an inhibitory constant (Ki) of 11 nM.
Compound `Cc1ccc(S(=O)(=O)N(CC(C)C)[C@@H](CCCCNC(=O)CNc2cccnc2)C(=O)O)cc1` [Example 106, Nα-Isobutyl-Nα-(4-methylbenzenesulfonyl)-Nε-[N′α-(3-pyridyl)glycyl]-L-lysine] yielded a Ki of over 300 nM.
In turn, `Cc1ccc(S(=O)(=O)N[C@@H](Cc2c[nH]c3ccccc23)C(=O)NCCCC[C@@H](CO)N(CC(C)C)S(=O)(=O)c2ccc(C)cc2)cc1` [Example 97, (2S,2′S) 2-N-Isobutyl-2-N-(4-methylbenzenesulfonyl)-6-N-[N′α-(4-methylbenzenesulfonyl)-S-tryptophanyl]-2,6-diaminohexanol] gave a Ki of 3.6 nM.
The compound `Cc1ccc(S(=O)(=O)N[C@@H](Cc2ccc([N+](=O)[O-])cc2)C(=O)NCCCC[C@@H](CO)N(CC(C)C)S(=O)(=O)c2ccc(C)cc2)cc1` [Example 124, (2S,2′S) 2-N-Isobutyl-2-N-(4-methylbenzenesulfonyl)-6-N-[N′α-(4-methylbenzenesulfonyl)-S-4-nitrophenylalanyl]-2,6-diaminohexanol] displayed a Ki of 12 nM.

Still in this experiment, the particulars now being: Anti-protease activity of Ne-amino acid substituted L-lysine derivatives and analogs of formula I; read-out: Ki.
In the case of `Cc1ccc(S(=O)(=O)N[C@@H](Cc2ccc([N+](=O)[O-])cc2)C(=O)NCCCC[C@@H](C(=O)O)N(CC(C)C)S(=O)(=O)c2ccc(C)cc2)cc1` [Example 26, Nα-Isobutyl-Nα-(4-methylbenzenesulfonyl)-Nε-[N′α-(4-methylbenzenesulfonyl)-L-4-nitrophenylalanyl]-L-lysine], the Ki is 2.6 nM.

Staying with this experiment, now noted: Anti-protease activity; read-out: Ki.
Take `Cc1ccc(S(=O)(=O)N(CC(C)C)[C@@H](CCCCNC(=O)[C@@H]2C[C@@H](O)CN2S(=O)(=O)c2ccccc2)C(=O)O)cc1` (relative stereo) [Example 17, Nα-Isobutyl-Nα-(4-methylbenzenesulfonyl)-Nε-[N′α-(benzenesulfonyl)-4-trans-hydroxy-L-prolyl]-L-lysine]: the Ki is 55 nM.

Still in this experiment, the particulars now being: Table 1, compounds of formula I; read-out: Ki (anti-protease activity).
`Cc1ccc(S(=O)(=O)N(CC(C)C)[C@@H](CCCCNC(=O)CNc2ccccc2)C(=O)O)cc1` [Example 105, Nα-Isobutyl-Nα-(4-methylbenzenesulfonyl)-Nε-(N′α-phenylglycyl)-L-lysine]: the Ki worked out at 7.7 nM.
